From paper PMC6155649 (Molecules : A Journal of Synthetic Chemistry and Natural …, 2017)
Read-outs that look alike come from different tables or passages of the source. Marks after values point to notes of the source that are not given here.

How the values were obtained:
[1] = system: human lung MRC-5 fibroblasts; set-up: method as in PMID 21682307; conditions: human MRC-5 fibroblasts, previously reported values; cited from earlier work
P. berghei (ANKA-strain) = assay: in vivo antimalarial activity in P. berghei ANKA-infected Swiss mice; set-up: species or system Plasmodium berghei; conditions: for % Parasitaemia (dpi) 4 / % Suppression (dpi) 4: day 4 post infection; for % Parasitaemia (dpi) 7 / % Suppression (dpi) 7: day 7 post infection; for % Parasitaemia (dpi) 11 / % Suppression (dpi) 11: day 11 post infection
Method: Swiss mice (female—BW ~ 25 g; Janvier France, Le Genest Saint Isle, France) were allocated randomly to five groups of four animals each. Drinking water and food were available ad libitum throughout the experiment.
P. berghei (ANKA-strain) is maintained in the laboratory by weekly mechanical subpassage in Swiss mice. The infection inoculum was prepared by taking heparinized blood was collected from a clinically ill donor mouse (approximately 20% parasitaemia) and diluted in PBS to obtain an infection inoculum of 0.15 mL with about 4 × 10^8 infected erythrocytes. The infection-inoculum was given intraperitoneally. The untreated infected controls developed severe malaria with most animals showing severe clinical signs on day 4. […]. […]

P. falciparum Dd2 [2] = assay: SYBRgreen growth inhibition assay; type: cell-based; conditions: read-out: IC50 (nM) ± SD (n)
Method: (§1) The protocols are described in the experimental section. Two protocols to measure the growth inhibition were used: the tritiated hypoxanthine incorporation method and the SYBRgreen method. This was due to the fact that the radioactive assay was abandoned in the laboratory due to cost issues related to radioactive waste disposal. […] All data are mean values from one to four independent experiments, each consisting of eight drug concentrations in duplicate.
Parasite replication was assessed by fluorescent SYBRgreen staining of parasitic DNA [60] as previously described. IC50 values were calculated using SigmaPlot.

P. falciparum Dd2 [3] = system: P. falciparum Dd2; set-up: method as in PMID 21682307; conditions: P. falciparum Dd2, tritiated hypoxanthine incorporation method, previously reported values; cited from earlier work
Fe^III-heme = conditions: read-out: KD of the 1:1 π-π complex with Fe^III-heme; pH 7.5; cited from earlier work
[4] = system: human lung MRC-5 fibroblasts; assay: cytotoxicity, Alamar Blue (resazurin) assay; conditions: human MRC-5 fibroblasts, 3 days incubation
Method: All compounds were tested for cytotoxicity on human lung MRC-5 fibroblasts using the Alamar Blue assay (Table 1 and Table 2).
MRC-5SV2 cells are cultured in Earls MEM +5% FCSi. […] After 3 days incubation, cell viability is assessed fluorimetrically after addition of resazurin and fluorescence is measured (λex 550 nm, λem 590 nm). The results are expressed as % reduction in cell growth/viability compared to untreated control wells and CC50 is determined.

[5] = in 0.4 M KCl; cited from earlier work
P. berghei strain ANKA = system: P. berghei strain ANKA; set-up: method as in PMID 21682307; conditions: P. berghei strain ANKA-infected CD1 mice, day 4; cited from earlier work
[6] = absorption spectrophotometric titrations versus pH (pKa); conditions: for [LH+]pH5/[LH+]pH7.4: ratio of protonated species at pH 5 and 7.4, I = 0.1 M NaClO4, T = 25 °C; for pH of precipitation during the titration: H2O/DMSO, 91/1 v/v as printed, pKa could not be accurately evaluated
Description: The HClO4 and NaOH solutions were freshly prepared just before use and titrated with sodium tetraborate decahydrate (B4Na2O7·10H2O, puriss, p.a, Fluka) and potassium hydrogen phthalate (C8H5KO3, Fluka, puriss, p.a.), respectively, using methyl orange (RAL) and phenolphthalein (Prolabo, purum) as the indicators. The GLEE program was applied for the glass electrode calibration (standard electrode potential E0/mV and slope of the electrode/mV pH^−1) and to check carbonate levels of the NaOH solutions used (<5%). The cell was thermostated at 25.0 ± 0.2 °C by the flow of a Lauda E200 thermostat. A stream of argon, pre-saturated with water vapour, was passed over the surface of the solution.
The spectrophotometric data were analyzed with the Specfit program which adjusts the absorptivities and the stability constants of the species formed at equilibrium. Specfit uses factor analysis to reduce the absorbance matrix and to extract the eigenvalues prior to the multiwavelength fit of the reduced data set according to the Marquardt algorithm.

P. falciparum Dd2 [7] = assay: tritiated hypoxanthine incorporation growth inhibition assay; type: cell-based; conditions: for IC50: mean value
Method: as §1
The IC50 values were determined using standard in vitro proliferation assays. […] The amount of radioactivity in precipitable material served as an index of parasite proliferation.

[8] = observation of precipitation in DMSO; type: physicochemical; conditions: table footnote *
[9] = 10 mg/kg ip for 5 days, Swiss mice
[10] = 10 mg/kg ip for 5 days, Swiss mice, day 14 post infection
[11] = 10 mg/kg ip for 5 days, infected Swiss mice
[12] = Plasmodium falciparum, DD2, 72 h
[13] = P. falciparum Dd2, SYBRgreen method, 72 h
[14] = 0.1 M NaClO4 in water/DMSO (91:9 v/v)
[15] = Plasmodium falciparum, P. falciparum Dd2, SYBRgreen method, 72 h
[16] = P. falciparum Dd2, tritiated hypoxanthine incorporation method
[17] = Plasmodium falciparum, DD2, P. falciparum Dd2, tritiated hypoxanthine incorporation method
[18] = 50 mg/kg ip for 5 days, Swiss mice

## CCN(CC)CCCC(C)Nc1ccnc2cc(Cl)ccc12 (centres unmarked) [Chloroquine, chloroquine]
[1]
  Tox/MRC-5: 51.5 µM
P. berghei (ANKA-strain); [9]
  % Parasitaemia (dpi) 4: 5.2%
  % Suppression (dpi) 4: 86.3%
  % Parasitaemia (dpi) 7: 9.8%
  % Suppression (dpi) 7: 76.8%
  % Parasitaemia (dpi) 11: 32.1%
  % Suppression (dpi) 11: 52.7%
P. berghei (ANKA-strain); [10]
  % Parasitaemia (dpi) 14: 56.2%
  % Suppression (dpi) 14: 9.2%
P. berghei (ANKA-strain); [11]
  Health Status: From day 4 p.i. onwards: poor appearance, tremor, body weight loss, rough hair, one animal died before day 14 p.i.
  survival until day 7: 100%
P. falciparum Dd2 [2]; [12]
  IC50: 99 ± 19 nM
P. falciparum Dd2 [3]
  IC50: 110 ± 20 nM
Fe^III-heme
  Kd: 2000 to 15000 nM

## 2-Methyl-3-(3-bromo-benzyl)-4a,8a-dihydro-[1,4]naphthoquinone [Compound 25b]
P. falciparum Dd2 [2]; [13]
  IC50: 128 nM
[4]
  Tox/MRC-5: 20.8 µM

## OCCN(CCO)c1ccccc1 [N-phenyldiethanolamine]
[5]
  pKa: 4.13

## 2-Methyl-3-(4-bromo-benzyl)-4a,8a-dihydro-[1,4]naphthoquinone [Compound 25c]
[1]
  Tox/MRC-5: >32.0 µM
  Tox/MRC-5 (µM): >32.0 ^b µM
P. berghei strain ANKA
  reduction of parasitemia: 35.8%
P. falciparum Dd2 [2]; [13]
  IC50: 82 ± 2 nM
P. falciparum Dd2 [3]
  IC50: 46 ± 4 nM

## CC1=C(Cc2cccc(N(C)C)c2)C(=O)c2ccccc2C1=O [Compound 18, 2-(3-(Dimethylamino)benzyl)-3-methylnaphthalene-1,4-dione]
[6]; [14]
  pKa: 4.6 ± 0.04
[6]; Water/DMSO (0.91/0.09 v/v)
  [LH+]pH5/[LH+]pH7.4: 179.9
P. falciparum Dd2 [2]; [15]
  IC50: 386 ± 151 nM
[4]
  Tox/MRC-5: >64.0 µM

## CC(=O)Nc1cccc(CC2=C(C)C(=O)c3ccccc3C2=O)c1 [Compound 16, N-(3-((3-Methyl-1,4-dioxo-1,4-dihydronaphthalen-2-yl)methyl)phenyl)acetamide]
P. falciparum Dd2 [2]; [12]
  IC50: 310 ± 134 nM

## 2-(4′-nitro-Butyl-biphenyl-4-ylmethyl)-3-methyl-[1,4]naphthoquinone [Compound 28]
P. falciparum Dd2 [7]; [16]
  IC50: 474 nM
[4]
  Tox/MRC-5: >64.0 µM

## CC1=C(Cc2ccc(-c3ccc(C(C)(C)C)cc3)cc2)C(=O)c2ccccc2C1=O [Compound 27, 2-(4′-tert-Butyl-biphenyl-4-ylmethyl)-3-methyl-[1,4]naphthoquinone]
P. falciparum Dd2 [7]; [17]
  IC50: 485 nM
[4]
  Tox/MRC-5: >64.0 µM
other
  melting point: 112 to 114 °C

## CCN(CC)c1ccc(CC2=C(C)C(=O)c3ccccc3C2=O)cc1 [Compound 11, 2-(4-(Diethylamino)benzyl)-3-methylnaphthalene-1,4-dione]
[6]; [14]
  pKa: 5.07 ± 0.06
[6]; Water/DMSO (0.91/0.09 v/v)
  [LH+]pH5/[LH+]pH7.4: 112.0
P. falciparum Dd2 [2]; [15]
  IC50: 2060 ± 1070 nM
[4]
  Tox/MRC-5: 29.3 µM

## 2-Methyl-3-(2-bromo-benzyl)-4a,8a-dihydro-[1,4]naphthoquinone [Compound 25a]
P. falciparum Dd2 [2]; [13]
  IC50: 86.3 nM
[4]
  Tox/MRC-5: >64.0 µM

## CC1=C(Cc2ccc(N)cc2)C(=O)c2ccccc2C1=O [Compound 7, 2-(4-Aminobenzyl)-3-methylnaphthalene-1,4-dione]
[6]; Water
  [LH+]pH5/[LH+]pH7.4: 162.5
[6]; water with 0.1 M NaClO4
  pKa: 4.74 ± 0.05
P. falciparum Dd2 [2]; [15]
  IC50: 303 ± 138 nM
[4]
  Tox/MRC-5: >64.0 µM

## CC1=C(Cc2ccc(N(C)C)cc2)C(=O)c2ccccc2C1=O [Compound 3, 2-(4-(Dimethylamino)benzyl)-3-methylnaphthalene-1,4-dione]
[6]; [14]
  pKa: 4.87 ± 0.03
[6]; Water/DMSO (0.91/0.09 v/v)
  [LH+]pH5/[LH+]pH7.4: 144.7
P. falciparum Dd2 [2]; [15]
  IC50: 567 ± 217 nM
[4]
  Tox/MRC-5: >64.0 µM

## CCN(CC)c1cccc(CC2=C(C)C(=O)c3ccccc3C2=O)c1 [Compound 19, 2-(3-(Diethylamino)benzyl)-3-methylnaphthalene-1,4-dione]
[6]; [14]
  pKa: 5 to 5.5
[6]
  pH of precipitation during the titration: ~ 5
P. falciparum Dd2 [2]; [15]
  IC50: 236 ± 97 nM
[4]
  Tox/MRC-5: >64.0 µM

## CC(=O)Nc1ccccc1CC1=C(C)C(=O)c2ccccc2C1=O [Compound 22, N-(2-((3-Methyl-1,4-dioxo-1,4-dihydronaphthalen-2-yl)methyl)phenyl)acetamide]
P. falciparum Dd2 [2]; [15]
  IC50: 282 ± 86 nM
[4]
  Tox/MRC-5: 4.4 µM
other
  melting point: 218 to 220 °C

## CC(=O)Nc1ccc(CC2=C(C)C(=O)c3ccccc3C2=O)cc1 [Compound 9, N-(4-((3-Methyl-1,4-dioxo-1,4-dihydronaphthalen-2-yl)methyl)phenyl)acetamide]
P. falciparum Dd2 [2]; [12]
  IC50: 411 ± 220 nM

## CC1=C(Cc2cccc(N)c2)C(=O)c2ccccc2C1=O [Compound 17, 2-(3-Aminobenzyl)-3-methylnaphthalene-1,4-dione]
[6]; Water
  [LH+]pH5/[LH+]pH7.4: 209.6
[6]; water with 0.1 M NaClO4
  pKa: 4.3 ± 0.02
P. falciparum Dd2 [2]; [15]
  IC50: 1200 ± 1650 nM
[4]
  Tox/MRC-5: >64.0 µM
[8]
  behaviour in DMSO: Precipitates in DMSO

## CC1=C(Cc2ccc(NC(=O)OC(C)(C)C)cc2)C(=O)c2ccccc2C1=O [Compound 6, tert-Butyl(4-((3-Methyl-1,4-dioxo-1,4-dihydronaphthalen-2-yl)methyl)phenyl) carbamate]
P. falciparum Dd2 [7]; [16]
  IC50: 42.5 nM
P. falciparum Dd2 [7]; [17]
  IC50: 42 nM
P. berghei (ANKA-strain); [18]
  % Parasitaemia (dpi) 4: 9.4%
  % Suppression (dpi) 4: 75.5%
  % Parasitaemia (dpi) 7: 7.7%
  % Suppression (dpi) 7: 81.8%
  % Parasitaemia (dpi) 11: 41.9%
  % Suppression (dpi) 11: 38.1%
P. berghei (ANKA-strain); 50 mg/kg ip for 5 days, Swiss mice, day 14 post infection
  % Parasitaemia (dpi) 14: 69.3%
P. berghei (ANKA-strain); 50 mg/kg ip for 5 days, infected Swiss mice
  Health Status: From day 4 p.i. onwards: poor appearance (intermittent), one animal died before day 14 p.i.
P. falciparum Dd2 [2]; [15]
  IC50: 109 ± 46 nM
[4]
  Tox/MRC-5: >64.0 µM

## para-N-ethyl-3-benzylmenadione [Compound 10]
[6]
  pKa ± σ: 5–5.5
  pH of precipitation during the titration: ~ 5
P. falciparum Dd2 [2]; [13]
  IC50: 418 ± 166 nM
[4]
  Tox/MRC-5: >64.0 µM

## CC1=C(Cc2ccc(-c3ccc(N(C)C)cc3)cc2)C(=O)c2ccccc2C1=O [Compound 26, 2-(4′-Dimethylamino-biphenyl-4-ylmethyl)-3-methyl-[1,4]naphthoquinone]
P. falciparum Dd2 [7]; P. falciparum Dd2, hypoxanthine incorporation test
  fold higher IC50 value than plasmodione: 10 fold
P. falciparum Dd2 [7]; [16]
  IC50: 223 nM
P. falciparum Dd2 [7]; [17]
  IC50: 229 nM
[4]
  Tox/MRC-5: >64.0 µM
other
  melting point: 170 to 171 °C
